Assay results from publication PMC8955265, “Systematic Discovery of FBXW7-Binding Phosphodegrons Highlights Mitogen-Activated Protein Kinases as Important Regulators of Intracellular Protein Levels” (International Journal of Molecular Sciences, 2022).

These sequences were tested on FBXW7 (assay: Ratiometric EGFP/DsRed protein degradation assay with degron probes). Conditions: putative degron motif in EGFP-fused probe with AAKG2 MAPK docking motif; HEK293T, 48 h after transfection, EGFP/DsRed ratio with and without FBXW7 plasmid; search cycles 1-4.
Format: cell-based, human
Text: In order to be able to test putative phosphodegron motifs, a ratiometric protein level monitoring method was adapted to monitor MAPK controlled FBXW7 mediated protein degradation. Briefly, intact DsRed and an EGFP-chimera were expressed in HEK293T cells in equal amounts from an expression plasmid, giving an EGFP/DsRed fluorescence ratio close to one under non-degrading conditions. EGFP was fused to a probe comprised of a putative degron sequence and a known MAPK binding docking motif. EGFP signal is expected to diminish faster than DsRed in cells with more FBXW7 if the probe responded to degradation.
We started out from an intentionally general consensus motif of FBXW7 degrons, inspired by the liberal [TS]P..[TS]P pattern defined for yeast Cdc4 substrates, and scanned the human disordered part of the proteome using SliMSearch4 (the disorder score cut-off was 0.4 and flank length was 5). In all, 22 motifs from this list were subjectively chosen and tested in the ratiometric degradation assay giving only 5 positives (see Supplementary Table S1). Based on the results of this first round, by taking information both from the identified positives and negatives, the consensus motif definition was narrowed to requiring a proline at P + 2, but motifs were allowed to have a phospho-mimicking residue (D or E) at P + 4 because it had been formerly reported that this second phosphorylatable residue may be replaced by aspartate or glutamate. […] In the third round, hydrophobic amino acids were more strictly required at positions −1/−2 and P − 1/2/3 positions were further narrowed and P + 4 position was relaxed based on the identified negatives, which gave a higher hit rate (4 out of 6). This third round gave functional motifs at a good rate, but the used motif definition was very restrictive compared to other known motifs. Finally, in the fourth round, we gave up using an optimal consensus and established the positional relaxation model. […] Hits on this final, most predictive list are presented in Supplementary Table S2. All entries were filtered for motif locations by UniProt annotations, discarding all enzyme-inaccessible (e.g., extracellular) instances. Motifs that had any overlapping PFAM domain indicated were manually assessed using the AlphaFold EBI website. Out of these, only motifs that were highly accessible and located outside of confidently predicted folded domains were kept. We also added kinase consensus compatibility to every motif and the number of experiments where phosphorylation could be detected from PhosphoSitePlus.
The chimera degron module was ordered from IDT as gene Block (gBlock). It consisted of a coiled coil dimerization motif (GCN4: EELLSKNYHLENEVARLKK) to increase sensitivity by allowing multivalent binding, a MAPK binding docking motif (AAKG2: KKNASQKRRSLRVHIPDL), and the CycECO degron motif. The motifs were separated by Gly-Ser-Asn linkers and the gBlock was designed so that the motifs could be easily changed by using unique sets of restriction endonucleases. The gBlock was sub-cloned into the Gateway pENTR4 entry plasmid (Thermo Fisher, Waltham, MA, USA) using restriction enzymes (SalI and NotI). The pENTR4-chimera and the destination plasmid (MSCV-CMV-DsRed-IRES-EGFP-DEST from Addgene; 41941), [28]) were subjected to gateway cloning using LR clonase II enzyme (Invitrogen) to obtain the first DsRed-EGFP-chimera DNA construct containing the cycECO degron. Oligonucleotides corresponding to different degron sequences and docking motifs were ligated into the DsRed-EGFP-chimera DNA construct. The list of all the oligonucleotides used for cloning is provided in Supplementary Table S3. pcDNA3-FLAG-FBXW7α was a kind gift from Michael Pagano (New York University). The FBXW7 arginine mutant (Arg mutant: R465C; R479Q; R505L) was created using two-step PCR and cloned into the pcDNA3-FLAG plasmid. […]
With “AHELPLTPPADPSYPY [SP5, putative FBXW7 degron motif tested as EGFP-fused degradation probe]” the Outcome was “Positive (tested positive, where +FBXW7/control protein level ratio was lower than 1)”.
In the case of “AIRQSPSPPPEESRG [PDE4A, putative FBXW7 degron motif tested as EGFP-fused degradation probe]”, the Outcome was “Negative”.
“AKEFAPATPPSTPHNSSV [AKAP11-2nd, putative FBXW7 degron motif tested as EGFP-fused degradation probe]” was tested, and the Outcome was “Negative”.
For “APPIPSPPPSPPPSPAPLEP [CAMTA2, putative FBXW7 degron motif tested as EGFP-fused degradation probe]”, the Outcome was “Positive (tested positive, where +FBXW7/control protein level ratio was lower than 1)”.
“ASPTPPSPPPPPSPPASPSLPP [PP1R37, putative FBXW7 degron motif tested as EGFP-fused degradation probe]” was tested, and the Outcome was “Negative”.
“AVRTPPRTPNIV [KSR2-a, putative FBXW7 degron motif tested as EGFP-fused degradation probe]” was tested, and the Outcome was “Negative”.
“AVVRTPPKSPSSAK [Tau, putative FBXW7 degron motif tested as EGFP-fused degradation probe]” was tested, and the Outcome was “Negative”.
For “DLLAALPTPPHNQTEDV [KMT2D-3rd, putative FBXW7 degron motif tested as EGFP-fused degradation probe]”, the Outcome was “Positive (tested positive, where +FBXW7/control protein level ratio was lower than 1)”.
For “DRNVIPDTPPSTPLVPSR [AKAP11-1st, putative FBXW7 degron motif tested as EGFP-fused degradation probe]”, the Outcome was “Positive (tested positive, where +FBXW7/control protein level ratio was lower than 1)”.
For “ELDLMPYTPPQSTPKSA [PBRM1, putative FBXW7 degron motif tested as EGFP-fused degradation probe]”, the Outcome was “Negative”.
For “EQPSHTPPQTPTPPSTPPLGKQ [ARHGAP17, putative FBXW7 degron motif tested as EGFP-fused degradation probe]”, the Outcome was “Negative”.
In the case of “FSYQESPPRSPRRMSFSG [AAKG2, putative FBXW7 degron motif tested as EGFP-fused degradation probe]”, the Outcome was “Negative”.
“GEAAGSPVPTPPRSPAQEE [Bcl2L12, putative FBXW7 degron motif tested as EGFP-fused degradation probe]” was tested, and the Outcome was “Negative”.
In the case of “GEGDRGVSPPPSPFFSAI [FRY, putative FBXW7 degron motif tested as EGFP-fused degradation probe]”, the Outcome was “Negative”.
“GGHLESPARSLPQRP [FAAP20, putative FBXW7 degron motif tested as EGFP-fused degradation probe]” was tested, and the Outcome was “Negative”.
In the case of “GQAATPETPQPSPPGGSGS [HNF4, putative FBXW7 degron motif tested as EGFP-fused degradation probe]”, the Outcome was “Negative”.
In the case of “GSDGASPPASPSIIPR [MAP3K10, putative FBXW7 degron motif tested as EGFP-fused degradation probe]”, the Outcome was “Negative”.
In the case of “IHQAGGSPPASSTSSS [RAPTOR, putative FBXW7 degron motif tested as EGFP-fused degradation probe]”, the Outcome was “Negative”.
With “KHSNSPPLVTPPQSPVSPQPPA [SMTL2, putative FBXW7 degron motif tested as EGFP-fused degradation probe]” the Outcome was “Positive (tested positive, where +FBXW7/control protein level ratio was lower than 1)”.
For “KMSQPGSPSPKTPTPSTPGDTQ [CHD4, putative FBXW7 degron motif tested as EGFP-fused degradation probe]”, the Outcome was “Negative”.
For “KQFLISPPASPPVGWKQV [RCAN1, putative FBXW7 degron motif tested as EGFP-fused degradation probe]”, the Outcome was “Negative”.
With “KTGEQTPPHEHICLRDELP [JIP1, putative FBXW7 degron motif tested as EGFP-fused degradation probe]” the Outcome was “Negative”.
With “LGPVHPTPPPSSPQEP [KMT2D-a, putative FBXW7 degron motif tested as EGFP-fused degradation probe]” the Outcome was “Negative”.
In the case of “MVQRLGLISPPASQVSTA [GLIS3, putative FBXW7 degron motif tested as EGFP-fused degradation probe]”, the Outcome was “Negative”.
With “NYGARPPPTPPASPPPSV [KMT2E, putative FBXW7 degron motif tested as EGFP-fused degradation probe]” the Outcome was “Positive (tested positive, where +FBXW7/control protein level ratio was lower than 1)”.
In the case of “PLGPPATPPGSPPCSLL [PKMYT1, putative FBXW7 degron motif tested as EGFP-fused degradation probe]”, the Outcome was “Negative”.
With “PPEESPLSPPPEASRLS [KMT2D-b, putative FBXW7 degron motif tested as EGFP-fused degradation probe]” the Outcome was “Negative”.
“PPLQVPPSPPASPPMSPS [PRR36, putative FBXW7 degron motif tested as EGFP-fused degradation probe]” was tested, and the Outcome was “Positive (tested positive, where +FBXW7/control protein level ratio was lower than 1)”.
“PRPPRPPSPPPEPETTD [SETD1B, putative FBXW7 degron motif tested as EGFP-fused degradation probe]” was tested, and the Outcome was “Negative”.
With “PSFPPTPPTPPASPPHTPV [EIF4G3, putative FBXW7 degron motif tested as EGFP-fused degradation probe]” the Outcome was “Positive (tested positive, where +FBXW7/control protein level ratio was lower than 1)”.
For “PSTTVGSHSPPETPVLTR [ZMYND1 or 8, putative FBXW7 degron motif tested as EGFP-fused degradation probe]”, the Outcome was “Negative”.
“QGQKVGSLTPPSSPKTQRA [AAK1, putative FBXW7 degron motif tested as EGFP-fused degradation probe]” was tested, and the Outcome was “Negative”.
With “QGYLSPESSPPASPVPACS [CREB5, putative FBXW7 degron motif tested as EGFP-fused degradation probe]” the Outcome was “Negative”.
With “QQAPLTPPNTPDPRSPPNPDNIA [Myozenin2, putative FBXW7 degron motif tested as EGFP-fused degradation probe]” the Outcome was “Positive (tested positive, where +FBXW7/control protein level ratio was lower than 1)”.
For “RPALPATPPATPPAASP [CDT1, putative FBXW7 degron motif tested as EGFP-fused degradation probe]”, the Outcome was “Positive (tested positive, where +FBXW7/control protein level ratio was lower than 1)”.
In the case of “SAVQTPPSPPVSPRVLS [PCARE, putative FBXW7 degron motif tested as EGFP-fused degradation probe]”, the Outcome was “Negative”.
With “SDLDKTPPPSPPPEED [CHD7, putative FBXW7 degron motif tested as EGFP-fused degradation probe]” the Outcome was “Negative”.
In the case of “SPFHGSSPPQSTPLSPPPLTPK [DOCK5, putative FBXW7 degron motif tested as EGFP-fused degradation probe]”, the Outcome was “Negative”.
With “SPGDSPPGTPPASPPSSAWQ [TBC1D4, putative FBXW7 degron motif tested as EGFP-fused degradation probe]” the Outcome was “Negative”.
With “SRNHSPSPPVTPTGAA [NHSL1, putative FBXW7 degron motif tested as EGFP-fused degradation probe]” the Outcome was “Negative”.
With “STKRKPRVSPPASPTLEVE [SH3RF1, putative FBXW7 degron motif tested as EGFP-fused degradation probe]” the Outcome was “Negative”.
